Assay results taken from US11718618B2, “Substituted pyrido[2,1-a]isoquinolines as VMAT2 inhibitors” (priority 2021, dated 2023).
Like-named read-outs stand apart in the source and are kept apart here.

Experiments:
[1] = molecular target: human VMAT2 (Homo sapiens (Human), UniProt Q05940); assay: VMAT2 radioligand binding, 3H-dihydrotetrabenazine competition on human platelet homogenate
How it was run: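 Ki from scintillation counting of filter-bound ³H-dihydrotetrabenazine (10 nM) after 90 min, 25 °C incubation with twelve concentrations of compound. Membranes: human platelet homogenate, 30 μg protein per well; buffer DPBS, 1 mM EDTA, pH 7.4.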

[2] = test system: male Sprague-Dawley rats; assay: Open-field hypolocomotion / locomotor activity (LMA) assay; type: in vivo; settings: Rattus norvegicus, pre-treatment 60 or 120 minutes, beam breaks in 30 min, read-out: ED50, reduction of locomotor activity
Description: The effect of VMAT2 inhibitors on dopamine depletion was measured using the locomotor activity (LMA) assay. Following a pre-treatment time of 60 or 120 minutes, male Sprague-Dawley rats (200-250 g) were placed in a clear cage surrounded by photocell detectors (San Diego Instruments). Rat locomotor activity was detected by breaks in the photocell beams and activity is defined as the number of beam breaks in 30 min. Data was analyzed by one-way analysis of variance (ANOVA; SigmaStat version 3.0.1, SPSS, Chicago, Ill.) followed by the Student Newman Keuls post-hoc test for significance.

[3] = Stability of compounds in human liver microsomes; type: in vitro ADME; settings: for CLint scaled at 0.5 μM / half-life at 0.5 μM: both sexes, pH 7.4; for CLint scaled at 0.5 μM: liver microsomes, calculated from HLM half-life, read-out: HLM Scaled Intrinsic Clearance; for CLint scaled at 0.5 μM / Predicted Max. Bioavailability (% F) / HLM Predicted Systemic Clearance: human; for half-life at 0.5 μM: 0.5 μM compound, 0.5 mg/mL human liver microsomes, 37° C., maxed at 420 minutes, read-out: HLM Elimination half-life (t1/2, min); for Predicted Max. Bioavailability (% F): predicted from HLM data; for HLM Predicted Systemic Clearance: scaled from HLM half-life (Obach method)
How it was run: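 Compound at 0.5 μM incubated at 37 °C with pooled mixed-gender human liver microsomes (0.5 mg/mL protein) and an NADPH-generating system in pH 7.4 phosphate buffer, sampled 0–60 min. Parent depletion tracked by LC-MS/MS; t1/2 derived from the slope by non-linear regression, with predicted extraction ratio and maximum bioavailability also calculated.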

[4] = 10 nM 3H-dihydrotetrabenazine, human platelet homogenate, 25° C., 90 minutes, read-out: VMAT2 Ki

Sequence of human VMAT2 (Q05940 whole entry): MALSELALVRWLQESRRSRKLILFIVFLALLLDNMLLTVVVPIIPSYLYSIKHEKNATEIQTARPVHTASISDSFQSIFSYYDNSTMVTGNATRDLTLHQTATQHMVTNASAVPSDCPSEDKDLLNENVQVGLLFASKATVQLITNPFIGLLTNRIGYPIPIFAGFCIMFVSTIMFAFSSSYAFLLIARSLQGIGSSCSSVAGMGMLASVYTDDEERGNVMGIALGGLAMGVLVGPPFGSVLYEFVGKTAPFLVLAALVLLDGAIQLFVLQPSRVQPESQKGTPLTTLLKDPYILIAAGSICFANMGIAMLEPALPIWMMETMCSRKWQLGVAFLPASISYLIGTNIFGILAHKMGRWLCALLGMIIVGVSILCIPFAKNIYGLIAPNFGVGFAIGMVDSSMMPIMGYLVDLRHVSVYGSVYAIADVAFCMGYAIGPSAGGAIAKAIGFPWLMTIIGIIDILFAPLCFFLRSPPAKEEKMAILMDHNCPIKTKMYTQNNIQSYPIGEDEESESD

Compound | Ki [1, 4] [nM] | ED50 [2] [mg/kg] | CLint scaled at 0.5 μM [3] [mL/min/kg] | half-life at 0.5 μM [3] [min] | Predicted Max. Bioavailability (% F) [3] [% F] | HLM Predicted Systemic Clearance [3] [mL/min/kg] | Ki [1] [nM]
COc1cc2c(cc1OCC1(F)CC1)CCN1C[C@@H](CC(C)(C)C)[C@H](O)C[C@H]21 [Compound 4-31, (2R,3R,11bR)-3-(2,2-dimethylpropyl)-9-[(1-fluorocyclopropyl)methoxy]-10-methoxy-1H,2H,3H,4H,6H,7H,11bH-pyrido[2,1-a]isoquinolin-2-ol] | 1.6 | 0.31 | ≤ 2.97 | ≥ 420 | ≥87 | ≤2.59 | 
COc1cc2c(cc1OC[C@H](O)C(F)(F)F)CCN1C[C@@H](CC(C)(C)C)[C@H](O)C[C@H]21 [Compound 4-50, (2R,3R,11bR)-3-(2,2-dimethylpropyl)-10-methoxy-9-[(2S)-3,3,3-trifluoro-2-hydroxypropoxy]-1H,2H,3H,4H,6H,7H,11bH-pyrido[2,1-a]isoquinolin-2-ol] | 1.4 | 0.21 | ≤ 2.97 | ≥ 420 | ≥87 | ≤2.59 | 
COc1cc2c(cc1OC[C@@H](C)O)CCN1C[C@@H](CC(C)(C)C)[C@H](O)C[C@H]21 [Compound 4-55, (2R,3R,11bR)-3-(2,2-dimethylpropyl)-9-[(2R)-2-hydroxypropoxy]-10-methoxy-1H,2H,3H,4H,6H,7H,11bH-pyrido[2,1-a]isoquinolin-2-ol] | 4.8 | 0.29 | ≤ 2.97 | ≥ 420 | ≥87 | ≤2.59 | 
COc1cc2c(cc1OCC(F)F)CCN1C[C@@H](CC(C)(C)C)[C@@H](O)C[C@H]21 [Compound 4-10, (2S,3R,11bR)-9-(2,2-difluoroethoxy)-3-(2,2-dimethylpropyl)-10-methoxy-1H,2H,3H,4H,6H,7H,11bH-pyrido[2,1-a]isoquinolin-2-ol] | 15 |  | 3.65 | 342 | 85 | 3.09 | 
COc1cc2c(cc1OCC1(C(F)F)CC1)CCN1C[C@@H](CC(C)(C)C)[C@H](O)C[C@H]21 [Compound 4-57, (2R,3R,11bR)-9-{[1-(difluoromethyl)cyclo-propyl]methoxy}-3-(2,2-dimethylpropyl)-10-methoxy-1H,2H,3H,4H,6H,7H,11bH-pyrido[2,1-a]isoquinolin-2-ol] | 0.93 |  | ≤ 2.97 | ≥ 420 | ≥87 | ≤2.59 | 
COc1cc2c(cc1OCCOC1(C#N)CCOCC1)CCN1C[C@@H](CC(C)(C)C)[C@H](O)C[C@H]21 [Compound 4-41, 4-(2-{[(2R,3R,11bR)-3-(2,2-dimethylpropyl)-2-hydroxy-10-methoxy-1H,2H,3H,4H,6H,7H,11bH-pyrido[2,1-a]isoquinolin-9-yl]oxy}ethoxy)oxane-4-carbonitrile] | 238 |  | 45.2 | 28 | 31 | 13.87 | 
COc1cc2c(cc1OCC1(C#N)CCC1)CCN1C[C@@H](CC(C)(C)C)[C@H](O)C[C@H]21 [Compound 4-42, 1-({[(2R,3R,11bR)-3-(2,2-dimethylpropyl)-2-hydroxy-10-methoxy-1H,2H,3H,4H,6H,7H,11bH-pyrido[2,1-a]isoquinolin-9-yl]oxy}methyl)cyclobutane-1-carbonitrile] | 35 |  | 24.3 | 51 | 45 | 10.98 | 
COc1cc2c(cc1OC1CC1)CCN1C[C@@H](CC(C)(C)C)[C@H](O)C[C@H]21 [Compound 4-27, (2R,3R,11bR)-9-cyclopropoxy-3-(2,2-dimethylpropyl)-10-methoxy-1H,2H,3H,4H,6H,7H,11bH-pyrido[2,1-a]isoquinolin-2-ol] | 1 | 0.14 | ≤ 2.97 | ≥ 420 | ≥87 | ≤2.59 | 
COc1cc2c(cc1OCc1cocn1)CCN1C[C@@H](CC(C)(C)C)[C@H](O)C[C@H]21 [Compound 4-75, (2R,3R,11bR)-3-(2,2-dimethylpropyl)-10-methoxy-9-(1,3-oxazol-4-ylmethoxy)-1H,2H,3H,4H,6H,7H,11bH-pyrido[2,1-a]isoquinolin-2-ol] | 76 |  | 11.9 | 104 | 63 | 7.48 | 
[2H]C([2H])([2H])Oc1cc2c(cc1OC)[C@H]1C[C@@H](O)[C@H](CC(C)(C)C)CN1CC2 [Compound 4-52, (2R,3R,11bR)-3-(2,2-dimethylpropyl)-9-(methoxy-d3)-10-methoxy-1H,2H,3H,4H,6H,7H,11bH-pyrido[2,1-a]isoquinolin-2-ol] |  |  | ≤ 2.97 | ≥ 420 | ≥87 | ≤2.59 | 2.5
COc1cc2c(cc1O[C@@H]1CCOC1)CCN1C[C@@H](CC(C)(C)C)[C@H](O)C[C@H]21 [Compound 4-53, (2R,3R1bR)-3-(2,2-dimethylpropyl)-10-methoxy-9-[(3R)-oxolan-3-yloxy]-1H,2H,3H,4H,6H,7H,11bH-pyrido[2,1-a]isoquinolin-2-ol] | 12 |  | 8.57 | 146 | 70 | 6 | 
COc1cc2c(cc1OCC#N)CCN1C[C@@H](CC(C)(C)C)[C@H](O)C[C@H]21 [Compound 4-24, 2-{[(2R,3R,11bR)-3-(2,2-dimethylpropyl)-2-hydroxy-10-methoxy-1H,2H,3H,4H,6H,7H,11bH-pyrido[2,1-a]isoquinolin-9-yl]oxy}acetonitrile] | 35 |  | 10.7 | 117 | 65 | 6.97 | 
COc1cc2c(cc1OC[C@@H](O)C(F)(F)F)CCN1C[C@@H](CC(C)(C)C)[C@H](O)C[C@H]21 [Compound 4-49, (2R,3R,11bR)-3-(2,2-dimethylpropyl)-10-methoxy-9-[(2R)-3,3,3-trifluoro-2-hydroxypropoxy]-1H,2H,3H,4H,6H,7H,11bH-pyrido[2,1-a]isoquinolin-2-ol] | 20 |  | ≤ 2.97 | ≥ 420 | ≥87 | ≤2.59 | 
